According to patent US20240150330A1, “CHROMANS AND BENZOFURANS AS 5-HT1A AND TAAR1 AGONISTS” (Sunovion Pharmaceuticals Inc., priority 2021, published 2024):

Target: T1, TAAR1 receptor (UniProt Q96RJ0)
T1 sequence (Q96RJ0 1-339): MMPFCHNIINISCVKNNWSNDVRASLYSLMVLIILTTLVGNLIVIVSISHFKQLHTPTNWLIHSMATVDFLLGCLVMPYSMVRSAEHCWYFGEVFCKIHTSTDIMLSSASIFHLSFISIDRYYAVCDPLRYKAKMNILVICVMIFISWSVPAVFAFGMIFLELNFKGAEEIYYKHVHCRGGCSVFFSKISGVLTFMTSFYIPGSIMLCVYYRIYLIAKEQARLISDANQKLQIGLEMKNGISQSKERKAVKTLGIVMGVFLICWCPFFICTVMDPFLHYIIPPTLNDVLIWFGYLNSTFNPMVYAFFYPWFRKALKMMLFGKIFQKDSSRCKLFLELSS
Test: TAAR1 Agonist cAMP Assay
Assay type: cell-based, human or mouse
Settings: CHO-K1 cells expressing TAAR1; cAMP HTRF; 30 minutes at room temperature
Description: CHO-K1 cells expressing the human TAAR1 receptor (Accession number NP_612200.1) or mouse TAAR1 receptor (Accession number NP_444435.1) were grown in media (Advanced DMEM supplemented with 1% dialyzed fetal bovine serum) without antibiotics. The cells were detached by gentle flushing with phosphate buffered saline containing 5 mM EDTA, recovered by centrifugation and resuspended in assay buffer (Krebs-Ringers Henseleit buffer: 5 mM KCl, 1.25 mM MgSO4, 124 mM NaCl, 25 mM HEPES, 13.3 mM Glucose, 1.25 mM KH2PO4, 1.45 mM CaCl2, 0.5 g/L BSA, supplemented with 1 mM isobutylmethylxanthine). Testing was performed in 384-well plates. 5 μl of cells (3000 cells) were mixed with 5 μl of the test compound diluted in assay buffer and then incubated for 30 minutes at room temperature. cAMP levels were determined using the Cisbio cAMP Gs dynamic HTRF kit (Cisbio, Bedford, MA). The results of the testing are shown in Table 3, with EC50 ranges designated as follows: • A=0.1 μM to 1 μM • B=0.01 μM to <0.1 μM • C=0.001 μM to <0.01 μM • D=0.0001 μM to <0.001 μM

Structure (SMILES)	EC50
CNC[C@@H]1CCOc2c(-c3cncs3)cccc21 [Compound 39]	1 to 10 nM
CNC[C@@H]1CCOc2c(-c3cncn3C)cccc21 [Compound 37]	10 to 100 nM
CNC[C@@H]1CCOc2c(-c3nccs3)cccc21 [Compound 56, (R)—N-methyl-1-(8-(thiazol-2-yl)chroman-4-yl)methanamine]	10 to 100 nM
CNC[C@@H]1CCOc2c(-c3cn(C)nc3C)cccc21 [Compound 49]	10 to 100 nM
CNC[C@@H]1CCOc2c(-c3ccnnc3)cccc21 [Compound 41]	10 to 100 nM
CNC[C@@H]1CCOc2c(-c3ccc(C(F)(F)F)nc3)cccc21 [Compound 8, methyl({[(4R)-8-[6-(trifluoromethyl)pyridin-3-yl]-3,4-dihydro-2H-1-benzopyran-4-yl]methyl})amine]	10 to 100 nM
CNC[C@@H]1CCOc2c(-c3cc(C)ncc3C)cccc21 [Compound 33]	1 to 10 nM
CNC[C@@H]1CCOc2c(-c3cnsc3)cccc21 [Compound 57, (R)-1-(8-(isothiazol-4-yl)chroman-4-yl)-N-methylmethanamine]	1 to 10 nM
CNCC1CCOc2c(-c3cnccc3C)cccc21 (stereo in doubt) [Compound 6, (R)—N-methyl-1-(8-(4-methylpyridin-3-yl)chroman-4-yl)methanamine]	1 to 10 nM
CNC[C@@H]1CCOc2c(-c3cnc(C)nc3)cccc21 [Compound 43]	100 to 1000 nM
CNC[C@@H]1CCOc2c(-c3cnc[nH]3)cccc21 [Compound 45, {[(4R)-8-(1H-imidazol-5-yl)-3,4-dihydro-2H-1-benzopyran-4-yl]methyl}(methyl)amine]	1 to 10 nM
CNC[C@@H]1CCOc2c(-c3cncnc3)cccc21 [Compound 32]	1 to 10 nM
NC[C@@H]1CCOc2c(-c3ccnc(C(F)(F)F)c3)cccc21 [Compound 9, 1-[(4R)-8-[2-(trifluoromethyl)pyridin-4-yl]-3,4-dihydro-2H-1-benzopyran-4-yl]methanamine]	0.1 to 1 nM
Cn1cncc1-c1cccc2c1OCC[C@H]2CN [Compound 36]	1 to 10 nM
CNC[C@@H]1CCOc2c(-c3cnn(C)c3C)cccc21 [Compound 48]	1 to 10 nM
CNC[C@@H]1CCOc2c(-c3cnccn3)cccc21 [Compound 35]	10 to 100 nM
CNC[C@H]1CCOc2c(-c3cccnc3)cccc21 [Compound 25]	10 to 100 nM
CNC[C@@H]1CCOc2c(-c3ccc(F)cc3)cccc21 [Compound 53, (R)-1-(8-(4-fluorophenyl)chroman-4-yl)-N-methylmethanamine]	1 to 10 nM
CNC[C@@H]1CCOc2c(-c3ccnc(C)c3)cccc21 [Compound 18, (R)—N-methyl-1-(8-(2-methylpyridin-4-yl)chroman-4-yl)methanamine]	1 to 10 nM
CNC[C@@H]1CCOc2c(-c3cnn(C)c3)cccc21 [Compound 54, (R)—N-methyl-1-(8-(1-methyl-1H-pyrazol-4-yl)chroman-4-yl)methanamine]	1 to 10 nM
CNC[C@@H]1CCOc2c(-c3cscn3)cccc21 [Compound 50]	1 to 10 nM
CNC[C@@H]1CCOc2c(-c3ccnc(C(F)(F)F)c3)cccc21 [Compound 10]	1 to 10 nM
CNC[C@@H]1CCOc2c(-c3ccncc3C)cccc21 [Compound 21, methyl({[(4R)-8-(3-methylpyridin-4-yl)-3,4-dihydro-2H-1-benzopyran-4-yl]methyl})amine]	10 to 100 nM
CNC[C@@H]1CCOc2c(-c3ccncc3OC)cccc21 [Compound 12, (R)-1-(8-(3-methoxypyridin-4-yl)chroman-4-yl)-N-methylmethanamine]	100 to 1000 nM
CNC[C@@H]1CCOc2c(-c3ccnc(C)c3C)cccc21 [Compound 42]	10 to 100 nM
CNC[C@@H]1CCOc2c(-c3ccn(C)n3)cccc21 [Compound 55, (R)—N-methyl-1-(8-(1-methyl-1H-pyrazol-3-yl)chroman-4-yl)methanamine]	10 to 100 nM
CNC[C@H]1CCOc2c(-c3ccnc(C)c3)cccc21 [Compound 16, (S)—N-methyl-1-(8-(2-methylpyridin-4-yl)chroman-4-yl)methanamine]	10 to 100 nM
CNC[C@@H]1CCOc2c(-c3cccnc3C)cccc21 [Compound 28]	10 to 100 nM

Further lines, results first:

EC50	Structure (SMILES)
10 to 100 nM	Cc1ncc(-c2cccc3c2OCC[C@H]3CN)cn1 [Compound 26]
1 to 10 nM	Cc1cc(C)c(-c2cccc3c2OCC[C@H]3CN)cn1 [Compound 29, 1-[(4R)-8-(4,6-dimethylpyridin-3-yl)-3,4-dihydro-2H-1-benzopyran-4-yl]methanamine]
10 to 100 nM	Cc1ncccc1-c1cccc2c1OCC[C@H]2CN [Compound 27]
10 to 100 nM	Cc1nccc(-c2cccc3c2OCC[C@H]3CN)c1C [Compound 30, (R)-(8-(2,3-dimethylpyridin-4-yl)chroman-4-yl)methanamine]
1 to 10 nM	NC[C@@H]1CCOc2c(-c3ccnnc3)cccc21 [Compound 40]
1 to 10 nM	NC[C@@H]1CCOc2c(-c3cnc[nH]3)cccc21 [Compound 44, 1-[(4R)-8-(1H-imidazol-5-yl)-3,4-dihydro-2H-1-benzopyran-4-yl]methanamine]
10 to 100 nM	NC[C@@H]1CCOc2c(-c3ccc(C(F)(F)F)nc3)cccc21 [Compound 7, 1-[(4R)-8-[6-(trifluoromethyl)pyridin-3-yl]-3,4-dihydro-2H-1-benzopyran-4-yl]methanamine]
10 to 100 nM	NC[C@@H]1CCOc2c(-c3cnccn3)cccc21 [Compound 34]
1 to 10 nM	Cc1cnccc1-c1cccc2c1OCC[C@H]2CN [Compound 20, (R)-(8-(3-methylpyridin-4-yl)chroman-4-yl)methanamine]
0.1 to 1 nM	NC[C@@H]1CCOc2c(-c3cncs3)cccc21 [Compound 38]
1 to 10 nM	Cc1cc(-c2cccc3c2OCC[C@@H]3CN)ccn1 [Compound 15, (S)-(8-(2-methylpyridin-4-yl)chroman-4-yl)methanamine]
0.1 to 1 nM	Cc1ccc(-c2cccc3c2OCC[C@H]3CN)cn1 [Compound 13, (R)-(8-(6-methylpyridin-3-yl)chroman-4-yl)methanamine]
10 to 100 nM	NC[C@H]1CCOc2c(-c3cccnc3)cccc21 [Compound 24]
1 to 10 nM	Cc1cc(-c2cccc3c2OCC[C@H]3CN)ccn1 [Compound 17, (R)-(8-(2-methylpyridin-4-yl)chroman-4-yl)methanamine]
1 to 10 nM	CNC[C@@H]1CCOc2c(-c3ccc(C)nc3)cccc21 [Compound 14, (R)—N-methyl-1-(8-(6-methylpyridin-3-yl)chroman-4-yl)methanamine]
1 to 10 nM	NC[C@@H]1CCOc2c(-c3cncnc3)cccc21 [Compound 31]
1 to 10 nM	COc1cnccc1-c1cccc2c1OCC[C@H]2CN [Compound 11, [(4R)-8-(3-methoxypyridin-4-yl)-3,4-dihydro-2H-1-benzopyran-4-yl]methanamine]
0.1 to 1 nM	NC[C@@H]1CCOc2c(-c3cccnc3)cccc21 [Compound 22]
1 to 10 nM	Cc1cc(-c2cccc3c2OCC[C@H]3CN)c(C)cn1 [Compound 19, (R)-(8-(2,5-dimethylpyridin-4-yl)chroman-4-yl)methanamine]
1 to 10 nM	Cc1ccncc1-c1cccc2c1OCC[C@H]2CN [Compound 5, (R)-(8-(4-methylpyridin-3-yl)chroman-4-yl)methanamine]
